According to patent US20020025929A1, “METHOD OF BUILDING AND MAINTAINING BONE” (priority 1997, published 2002):
Marks after values point to notes of the source that are not given here.

Key:
Assay type in all cases: in vivo, Sprague-Dawley rats
[1] = test system: osteopenic ovariectomized rats; experiment: Femoral neck strength (shear loading of proximal femur); set-up: Neck Fu (ultimate force): unit not given beside the values; settings: OVX rats, proximal femora in shear, mean ± SEM
Experimental: Femoral neck strength was measured by mounting the proximal half of the femur vertically in a chuck and applying downward force at a rate of 1 mm/sec on the femoral head until the neck failed. The ultimate load was calculated as the maximum force sustained by the femoral neck. All tests were done at room temperature using the MTS system.
(§1) In a second study, virgin Sprague-Dawley rats were bilaterally ovariectomized (except for the sham-operated group), the ovariectomized animals randomized, and allowed to lose bone for one month prior to treatment in the manner described above. The animal groups, each containing 7-8 animals, included sham-operated animals (SHAM); bilaterally ovariectomized animals (OVX); bilaterally ovariectomized animals treated with 0.01, 0.3 or 1 mg/kg/day of compound 1a, respectively, for three months; bilaterally ovariectomized animals treated subcutaneously with PTH(1-34) at a dose of 10 μg/kg/day for three months; bilaterally ovariectomized animals treated subcutaneously with PTH(1-34) at a dose of 10 μg/kg/day and orally with compound 1a at a dose of 0.3 mg/kg/day, both compounds administered for three months; bilaterally ovariectomized animals treated subcutaneously with PTH(1-34) at a dose of 10 μg/kg/day for forty-five days followed by gavage administration of vehicle for forty-five days; bilaterally ovariectomized animals treated subcutaneously with PTH(1-34) at a dose of 10 μg/kg/day for forty-five days followed by oral administration of only compound 1a at a dose of 0.3 mg/kg/day for forty-five days; and bilaterally ovariectomized animals treated with 17α-ethynyl estradiol administered orally at a dose of 0.1 mg/kg/day.

[2] = test system: osteopenic ovariectomized rats; experiment: Three point bending test of femora mid-shaft; set-up: I (moment of inertia): unit not given beside the values; settings: OVX rats; for cortical thickness of femora mid-shaft (in words): continuous treatment (PTH 90 days); for E (Young's modulus) / Fu (ultimate force) / I (moment of inertia) / t (cortical thickness) / u (toughness) / σu (strength): femora mid-shaft, mean ± SEM; for load to failure (Fu) and toughness of femora mid-shaft (in words): 1a dose-dependent up to 1 mg/kg, EE2 0.1 mg/kg, PTH (1-34) 45 and 90 days, combination
Experimental: Bone strength was measured for the femoral neck, midshaft, and the L-6 vertebra. Femora were thawed before testing, and bone strength was measured on intact femora using a three point bending test. Load was applied midway between two supports that were 15 mm apart. The femora were positioned so the loading point was 7.5 mm proximal from the distal popliteal space and bending occurred about the medial-lateral axis. Specimens were tested in a saline bath at 37° C. Each specimen was submerged in the saline bath for three minutes before testing to allow equilibration of temperature. Load-displacement curves were recorded at a crosshead speed of 1 mm/sec using a servo-hydraulic materials testing machine (MTS Corp., Minneapolis, Minn.) and an x-y recorder (Hewlett Packard 7090A, Palo Alto, Calif.). The measurements included: cross-sectional moment of inertia (I), cortical thickness (t), ultimate load (Fu), ultimate stress (σu), Young's modulus (E), and toughness (u). These values were calculated as described previously (Turner and Burr 1993; Turner et al. 1996).
as §1

[3] = test system: osteopenic ovariectomized rats; experiment: Longitudinal pQCT of proximal tibial metaphysis; settings: OVX rats, treated continuously 3 months (90 days), at termination; 1a 0.01, 0.3, 1.0 mg/kg; EE2 0.1 mg/kg; PTH (1-34) 10 μg/kg; FIG. 1
Experimental: (§2) The metaphysis of proximal tibiae were scanned longitudinally from baseline, using a 960A pQCT loaded with Dichte software version 5.2 (Norland/Stratec, Ft. Atkinson, Wis.), using the technique described by Sato et al., —1995, JPET 272:1252-1259; Sato 1995, Bone 17:157S-162S). Volumetric bone mineral density (BMD, mg/cm3), cross-sectional area (X-Area), voxel number, and mineral content (BMC, mg) were quantitated for the whole cross-section of the metaphysis. Sites of excised bones were analyzed at higher resolution, using a micro-CT (Stratec). Specifically, distal femora (below the condyles, see Sato et al. 1995) and L-3 vertebra (mid-cross section, Helterbrand et al., 1997, Bone 21:401-409) were analyzed using voxel dimensions of 50 ×50×1000 μm and 70×70×1000 μm, respectively.
as §1
In the second study, the proximal tibial metaphysis was scanned longitudinally by pQCT for rats from baseline.
Treatment, as indicated, was initiated after 1 month postovariectomy and continued for the following 3 months. Specifically, administration of compound 1a alone(closed triangles), PTH (1-34) alone (open triangles), in combination (closed squares), or in sequence (closed diamonds) were compared to OVX (open circles), Sham (closed circles), and estrogen (EE2, open diamonds) controls.

[4] = test system: osteopenic ovariectomized rats; experiment: Compression testing of L-6 vertebra; settings: OVX rats; for Vert E (Young's modulus) / Vert u (toughness) / Vert σu (vertebral strength): lumbar vertebra in compression, mean ± SEM
Experimental: Bone strength of L-6 vertebrae was measured after the posterior processes were removed and the ends of the centrum made parallel using a diamond wafering saw (Buehler Isomet, Evanston, Ill.). Ultimate stress (σu) Young's modulus (E), and toughness (u) for each vertebra was measured in compression at a load rate of 50 N/sec using the MTS machine. The compressive load was applied through a pivoting platen to correct for nonparallel alignment of the faces of the vertebral body (Turner and Burr, 1993).
Specimens were tested in saline solution at 37° C. Ultimate stress was calculated as the maximum load divided by the gross cross-sectional area πAB/4, where A and B are the vertebral widths in the anterior-posterior and medial lateral directions. Young's modulus was calculated by multiplying stiffness times 4T/πAB, where T is the specimen thickness. Toughness was calculated as the area under the load-displacement curve divided by πABT/4.
as §1

osteopenic rats [5] = experiment: Micro-CT of L-3 vertebra; settings: continuous dosing, 1a 0.01-1 mg/kg, 17α-ethynyl estradiol 0.1 mg/kg, PTH (1-34), 1a 0.3 mg/kg with PTH (1-34), FIG. 3
Experimental: as §2
(§3) In a second study, virgin Sprague-Dawley rats were bilaterally ovariectomized (except for the sham-operated group), the ovariectomized animals randomized, and allowed to lose bone for one month prior to treatment in the manner described above. […]

osteopenic rats [6] = experiment: Micro-CT of distal femur metaphysis; settings: continuous treatment, 1a 0.01-1 mg/kg, 17α-ethynyl estradiol 0.1 mg/kg, PTH (1-34), 1a 0.3 mg/kg with PTH (1-34), FIG. 2
Experimental: as §2, §3

[7] = Cmpd. 1a 0.01 mg/kg/day oral, 3 months
[8] = Cmpd. 1a 0.3 mg/kg/day oral, 3 months
[9] = Cmpd. 1a 1 mg/kg/day oral, 3 months
[10] = Cmpd 1a 0.01 mg/kg/day oral, 3 months
[11] = Cmpd 1a 0.3 mg/kg/day oral, 3 months
[12] = Cmpd 1a 1 mg/kg/day oral, 3 months
[13] = 3 months: PTH (1-34) 10 μg/kg/day s.c., 1a 0.3 mg/kg/day oral + PTH, EE2 0.1 mg/kg/day oral

Compound: COc1ccc(-c2sc3cc(O)ccc3c2Oc2ccc(OCCN3CCCCC3)cc2)cc1 [Compound 1a, 6-hydroxy-2-(4-methoxyphenyl)-3-[4-(2-piperidin-1-ylethoxy)phenoxy]-benzo[b]thiophene]
- Neck Fu (ultimate force) [1, 7]: 112 ± 4.7
- Neck Fu (ultimate force) [1, 8]: 114 ± 5.1
- Neck Fu (ultimate force) [1, 9]: 117 ± 3.1
- cortical thickness of femora mid-shaft (in words) [2]: intermediate between Sham and OVX
- E (Young's modulus) [2, 10]: 9081 ± 446
- Fu (ultimate force) [2, 10]: 160 ± 5^s
- I (moment of inertia) [2, 10]: 4.35 ± .21
- t (cortical thickness) [2, 10]: .635 ± .020^s,o
- u (toughness) [2, 10]: 3.72 ± .26^s,o
- σu (strength) [2, 10]: 199 ± 5^s,o
- E (Young's modulus) [2, 11]: 8844 ± 431
- Fu (ultimate force) [2, 11]: 164 ± 4^s,o
- I (moment of inertia) [2, 11]: 4.05 ± .17^o
- t (cortical thickness) [2, 11]: .654 ± .012^s,o
- u (toughness) [2, 11]: 4.13 ± .24^o
- σu (strength) [2, 11]: 217 ± 5^o
- E (Young's modulus) [2, 12]: 10087 ± 520
- Fu (ultimate force) [2, 12]: 174 ± 4^o
- I (moment of inertia) [2, 12]: 4.17 ± .21
- t (cortical thickness) [2, 12]: .671 ± .010^s,o
- u (toughness) [2, 12]: 4.52 ± .25^o
- σu (strength) [2, 12]: 228 ± 9^o
- load to failure (Fu) and toughness of femora mid-shaft (in words) [2]: improved load to failure (Fu) and toughness in a dose-dependent manner to above OVX and not different from Sham at 1 mg/kg
- volumetric BMD of proximal tibial metaphysis (pQCT) [3]: prevented further bone loss and had BMD significantly greater than OVX at termination
- vertebral strength (Su) and toughness of L-6 vertebra (in words) ([4]; continuous treatment (PTH 90 days)): improved vertebral strength (Su) and toughness in a dose-dependent manner to above OVX
- Vert E (Young's modulus) [4, 7]: 540 ± 72
- Vert u (toughness) [4, 7]: 1.72 ± 0.44
- Vert σu (vertebral strength) [4, 7]: 24.8 ± 2.3^s
- Vert E (Young's modulus) [4, 8]: 436 ± 76
- Vert u (toughness) [4, 8]: 1.97 ± 0.37
- Vert σu (vertebral strength) [4, 8]: 28.3 ± 1.9^o
- Vert E (Young's modulus) [4, 9]: 384 ± 30
- Vert u (toughness) [4, 9]: 2.30 ± 0.29^o
- Vert σu (vertebral strength) [4, 9]: 27.8 ± 1.5^o
- spinal BMD or BMC of L-3 vertebra (micro-CT) (osteopenic rats [5]): marginal effects
- BMD of distal femur metaphysis (micro-CT) (osteopenic rats [6]): prevented further bone loss

Compound: C#C[C@]1(O)CC[C@H]2[C@@H]3CCc4cc(O)ccc4[C@H]3CC[C@@]21C [EE2, 17α-ethynyl estradiol]
- Neck Fu (ultimate force) [1, 13]: 110 ± 6.1
- cortical thickness of femora mid-shaft (in words) [2]: intermediate between Sham and OVX
- E (Young's modulus) [2, 13]: 10002 ± 844
- Fu (ultimate force) [2, 13]: 182 ± 11^o
- I (moment of inertia) [2, 13]: 4.42 ± .33
- t (cortical thickness) [2, 13]: .686 + .015^o
- u (toughness) [2, 13]: 4.62 ± .52^o
- σu (strength) [2, 13]: 225 ± 13^o
- load to failure (Fu) and toughness of femora mid-shaft (in words) [2]: above OVX and not different from Sham
- volumetric BMD of proximal tibial metaphysis (pQCT) [3]: BMD significantly greater than OVX at termination
- Vert E (Young's modulus) [4, 13]: 579 ± 94
- Vert u (toughness) [4, 13]: 1.44 ± 0.37
- Vert σu (vertebral strength) [4, 13]: 28.1 ± 2.6^o
- spinal BMD or BMC of L-3 vertebra (micro-CT) (osteopenic rats [5]): marginal effects
- BMD of distal femur metaphysis (micro-CT) (osteopenic rats [6]): prevented further bone loss
